The values that follow come from US11040954B1, “CXCR3 receptor agonists” (RECEPTOS LLC, priority 2016, dated 2021).

A value given as a limit tells only on which side of the number the result lay.

For the assay, the target named is T1, CXCR3 (Homo sapiens, UniProt P49682).
T1 construct: host or cells: CHO-K1 (cAMP Hunter CHOK1 CXCR3 Gi cell line)
T1 sequence (P49682 1-368): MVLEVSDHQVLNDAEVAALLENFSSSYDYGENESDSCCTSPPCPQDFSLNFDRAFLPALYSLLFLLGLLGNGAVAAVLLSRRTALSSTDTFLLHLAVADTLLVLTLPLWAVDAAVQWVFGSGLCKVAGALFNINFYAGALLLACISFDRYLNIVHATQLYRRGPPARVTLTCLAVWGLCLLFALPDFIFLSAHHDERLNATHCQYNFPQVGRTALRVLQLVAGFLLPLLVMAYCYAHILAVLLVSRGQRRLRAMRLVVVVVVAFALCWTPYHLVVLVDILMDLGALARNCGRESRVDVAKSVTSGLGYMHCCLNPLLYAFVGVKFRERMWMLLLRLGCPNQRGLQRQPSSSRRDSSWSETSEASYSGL
In words: CXCR3 cAMP agonist assay (cAMP Hunter CHOK1 CXCR3 Gi cell line, forskolin-stimulated, HitHunter cAMP detection). The conditions noted are these: cAMP Hunter CHOK1 CXCR3 Gi cells, 20 μM forskolin, 30 minutes; read-out: Activity (CXCR3 cAMP agonist assay compound EC50). It counts as cell-based. Here is the method: The cAMP Hunter™ CHOK1 CXCR3 Gi cell line was purchased from DiscoveRx. Cells were seeded into a 96-well white assay plate at 50,000 cells/well/94 μl assay buffer (Hank's Buffered Saline Solution, 10 mM HEPES, 0.1% fatty acid-free BSA, pH 7.4) and immediately assayed in suspension. Forskolin was added to 20 μM (5 μl of 400 μM stock) simultaneously with a 12-point dose response curve of compound at 0-10 μM (1 μl of 100× stock in 100% DMSO), and cells were incubated for 30 minutes. A cAMP standard curve is run as an assay control. A CXCL11 dose response was included to determine maximum efficacy. Direct detection of cAMP was carried out using the DiscoveRx HitHunter cAMP kit according to manufacturer's instructions, and luminescence was read using a SpectraMax M5 plate reader.

With `Cc1cc(NC(=O)C(CC2CCN(C)CC2)NC(=O)[C@@H]2Cc3ccccc3CN2C(=O)CCC(=O)c2ccccc2)ccc1Cl` (mixture of isomers) [Compound 6-1, (S)—N—((S)-1-((4-chloro-3-methylphenyl)amino)-3-(1-methylpiperidin-4-yl)-1-oxopropan-2-yl)-2-(4-oxo-4-phenylbutanoyl)-1,2,3,4-tetrahydroisoquinoline-3-carboxamide], the EC50 (commonly the concentration at which the effect is half-maximal) lay within 50 to 250 nM. Consider `Cc1cc(NC(=O)[C@H](CCN)NC(=O)[C@@H]2Cc3ccccc3CN2C(=O)CCC(=O)c2ccccc2)c(I)cc1Cl` [Compound 2-38], for which the half-maximal effective concentration (EC50) was less than 50 nM.

Take `NCCCC[C@H](NC(=O)[C@@H]1Cc2ccccc2CN1C(=O)CCC(=O)c1ccccc1)C(=O)Nc1ccc(F)c(F)c1` [Compound 1-21]: the EC50 was more than 500 nM. To `NCC[C@H](NC(=O)[C@@H]1Cc2ccccc2CN1C(=O)CCC(=O)c1ccccc1)C(=O)Nc1cccc(Cl)c1F` [Compound 2-34] belongs less than 50 nM. With `Cc1cc(NC(=O)[C@H](CCN)NC(=O)[C@@H]2Cc3ccccc3CN2C(=O)CCC(=O)N2CCCC2(C)C)ncc1Cl` [Compound 12-157] the figure was less than 50 nM. As to `NCC[C@H](NC(=O)[C@@H]1Cc2ccccc2CN1C(=O)CCC(=O)c1ccccc1)C(=O)NC1CCc2ccccc2C1` (stereo partly drawn) [Compound 2-81], the concentration giving a half-maximal response (EC50) lay within 50 to 250 nM. With `NCC[C@H](NC(=O)[C@@H]1Cc2ccccc2CN1C(=O)CCC(=O)c1ccccc1)C(=O)Nc1ccc(F)c(C(F)(F)F)c1` [Compound 2-14] the figure was less than 50 nM. With `Cc1cc(OC(F)(F)F)c(NC(=O)[C@H](CCN)NC(=O)[C@@H]2Cc3ccccc3CN2C(=O)CCC(=O)c2ccccc2)cc1Cl` [Compound 14-24] the figure was less than 50 nM.

With `NCC[C@H](NC(=O)[C@@H]1Cc2ccccc2CN1C(=O)CCC(=O)c1ccccc1)C(=O)Nc1ccc2cccnc2c1` [Compound 2-45], the concentration for a half-maximal effect (EC50) was 250 to 500 nM.

Regarding `Cc1cc(NC(=O)[C@H](CCN)NC(=O)[C@@H]2Cc3ccccc3CN2C(=O)CCC(=O)N2CCC3(CC3)C2)ccc1Cl` [Compound 12-69], the EC50 is less than 50 nM. As to `NCC[C@H](NC(=O)[C@@H]1Cc2ccccc2CN1C(=O)CCC(=O)c1ccccc1)C(=O)Nc1cc2c(cc1O)CCC2` [Compound 2-74], the EC50 lay in the range of 50 to 250 nM. With `Cc1cc(NC(=O)[C@H](CCN)NC(=O)[C@@H]2Cc3ccccc3CN2C(=O)CCC(=O)N2[C@@H](C)CCC[C@@H]2C)ccc1Cl` [Compound 12-142], the concentration giving a half-maximal response (EC50) was less than 50 nM. With `CC1(C)CCCN(C(=O)CCC(=O)N2Cc3ccccc3C[C@H]2C(=O)N[C@@H](CCN2CCC(O)CC2)C(=O)Nc2ccc(Cl)c(Cl)c2F)C1` [Compound 26-3] the figure was less than 50 nM; with `NCC[C@H](NC(=O)[C@@H]1Cc2ccccc2CN1C(=O)CCC(=O)c1ccccc1)C(=O)Nc1ccc(Cl)c(F)c1` [Compound 2-12], 250 to 500 nM. With `NCC[C@H](NC(=O)[C@@H]1Cc2ccccc2CN1C(=O)CCC(=O)c1ccccc1)C(=O)Nc1ccc2ncccc2c1` [Compound 2-43] the figure was 50 to 250 nM; with `CO[C@H]1CCCN(C(=O)CCC(=O)N2Cc3ccccc3C[C@H]2C(=O)N[C@@H](CCN)C(=O)Nc2ccc(Cl)c(Cl)c2F)C1` [Compound 15-26], less than 50 nM; with `Cc1cc(NC(=O)[C@H](CCN)NC(=O)[C@@H]2Cc3ccccc3CN2C(=O)CCC(=O)N2CCC(C(C)C)C2)ccc1Cl` (stereo partly drawn) [Compound 12-74], less than 50 nM. To `N#Cc1ccc2c(c1)CN(C(=O)CCC(=O)c1ccccc1)[C@H](C(=O)N[C@@H](CCN)C(=O)Nc1ccc(Cl)c(Cl)c1F)C2` [Compound 30-1, (S)—N—((S)-4-amino-1-((3,4-dichloro-2-fluorophenyl)amino)-1-oxobutan-2-yl)-7-cyano-2-(4-oxo-4-phenylbutanoyl)-1,2,3,4-tetrahydroisoquinoline-3-carboxamide] belongs 50 to 250 nM; to `Cc1cc(NC(=O)[C@H](CCN)NC(=O)[C@@H]2Cc3ccccc3CN2C(=O)CCC(=O)N2CCN(C)[C@H](C)C2)ccc1Cl` [Compound 12-35], less than 50 nM; to `Cc1cc(Cl)ccc1NC(=O)[C@H](CCN)NC(=O)[C@@H]1Cc2ccccc2CN1C(=O)CCC(=O)c1ccccc1` [Compound 2-10], 250 to 500 nM. On to `Cc1cc(NC(=O)[C@H](CCN)NC(=O)[C@@H]2Cc3ccccc3CN2C(=O)CCC(=O)N2CCN(C)C[C@@H]2C)ccc1Cl` [Compound 12-116], for which the EC50 fell in the range of 50 to 250 nM. With `Cc1cc(NC(=O)[C@H](CCN)NC(=O)[C@@H]2Cc3ccccc3CN2C(=O)CCC(=O)N2CCCC3(CCC3)C2)ccc1Cl` [Compound 12-78] the figure was less than 50 nM. To `Cc1cc(NC(=O)[C@H](CCN)NC(=O)[C@@H]2Cc3ccccc3CN2C(=O)CCC(=O)N2CCN(c3nccs3)CC2)ccc1Cl` [Compound 12-108] belongs 50 to 250 nM; to `Cc1cc(NC(=O)[C@H](CCN)NC(=O)[C@@H]2Cc3ccccc3CN2C(=O)CCC(=O)NCc2ccccc2)ccc1Cl` [Compound 12-18], more than 500 nM; to `Cc1c(Cl)ccc(NC(=O)[C@H](CCN)NC(=O)[C@@H]2Cc3ccccc3CN2C(=O)CCC(=O)N2CCCC(C)(C)C2)c1Cl` [Compound 15-50], less than 50 nM. As to `Cc1cc(NC(=O)[C@H](CCN)NC(=O)[C@@H]2Cc3ccccc3CN2C(=O)CCC(=O)N2CCN(C)c3ccccc32)ccc1Cl` [Compound 12-140], the EC50 was less than 50 nM. Take `CCc1c(Cl)ccc(NC(=O)[C@H](CCN)NC(=O)[C@@H]2Cc3ccccc3CN2C(=O)CCC(=O)c2ccccc2)c1Cl` [Compound 14-21]: the EC50 lay in the range of 50 to 250 nM.

On to `Cc1cc(NC(=O)[C@H](CCN)NC(=O)[C@@H]2Cc3ccccc3CN2C(=O)CCC(=O)N2CCC3CCCCC32)ccc1Cl` (stereo partly drawn) [Compound 12-95], for which the concentration for a half-maximal effect (EC50) was less than 50 nM. To `Cc1cc(NC(=O)[C@H](CCN)NC(=O)[C@@H]2Cc3ccccc3CN2C(=O)CCC(=O)N2CC(F)C2)ccc1Cl` [Compound 12-19] belongs 250 to 500 nM; to `Cc1cc(NC(=O)[C@H](CCN)NC(=O)[C@@H]2Cc3ccccc3CN2C(=O)CCC(=O)N2CCC[C@@H]2c2ccccc2)ccc1Cl` [Compound 12-132], 50 to 250 nM. To `CN(C)[C@@H]1CCN(C(=O)CCC(=O)N2Cc3ccccc3C[C@H]2C(=O)N[C@@H](CCN)C(=O)Nc2ccc(Cl)c(Cl)c2F)C1` [Compound 15-31] belongs less than 50 nM; to `Cc1cc(NC(=O)[C@H](CCN)NC(=O)[C@@H]2Cc3ccccc3CN2C(=O)CCC(=O)N2CCCC(F)(F)C2)ccc1Cl` [Compound 12-79], less than 50 nM; to `NCCCC[C@H](NC(=O)[C@@H]1Cc2ccccc2CN1C(=O)CCC(=O)c1ccccc1)C(=O)Nc1ccc(-c2ccccc2)cc1` [Compound 1-5], more than 500 nM.

Turning to `Cc1cc(NC(=O)[C@H](CCN)NC(=O)[C@@H]2Cc3ccccc3CN2C(=O)CCC(=O)N2[C@H](C)CCC[C@H]2C)ccc1Cl` [Compound 12-141], the EC50 is less than 50 nM. Consider `Cc1cc(NC(=O)[C@H](CCN)NC(=O)[C@@H]2Cc3ccccc3CN2C(=O)CCC(=O)N2CCC(O)C2)ccc1Cl` (stereo partly drawn) [Compound 12-48], for which the 50% effective concentration (EC50) is 50 to 250 nM. With `NCC[C@H](NC(=O)[C@@H]1Cc2ccccc2CN1C(=O)CCC(=O)N1CCC2(CC1)COC2)C(=O)Nc1ccc(Cl)c(Cl)c1F` [Compound 15-12] the figure was 250 to 500 nM.

For the compound `Cc1cc(NC(=O)[C@H](CCN)NC(=O)[C@@H]2Cc3ccccc3CN2C(=O)CCC(=O)NC(C)(C)C)ccc1Cl` [Compound 12-83], the EC50 was 50 to 250 nM. With `Cc1cc(NC(=O)[C@H](CCN)NC(=O)[C@@H]2Cc3ccccc3CN2C(=O)CCC(=O)N2CCCC2(C)C)ccc1Cl` [Compound 12-31] the figure was less than 50 nM; with `Cc1c(Cl)ccc(NC(=O)[C@H](CCN)NC(=O)[C@@H]2Cc3ccccc3CN2C(=O)CCC(=O)N2CCCCC2(C)C)c1Cl` [Compound 15-52], less than 50 nM. On to `Cc1cc(NC(=O)[C@@H](Cc2cc3ccccc3[nH]2)NC(=O)[C@@H]2Cc3ccccc3CN2C(=O)CCC(=O)c2ccccc2)ccc1Cl` [Compound 4-5], for which the concentration giving a half-maximal response (EC50) was more than 500 nM. To `CCN(C(=O)CCC(=O)N1Cc2ccccc2C[C@H]1C(=O)N[C@@H](CCN)C(=O)Nc1ccc(Cl)c(Cl)c1F)C(C)(C)C` [Compound 15-35] belongs less than 50 nM. Take `NCC[C@H](NC(=O)[C@@H]1Cc2ccccc2CN1C(=O)CCC(=O)c1ccccc1)C(=O)Nc1cc2c(cc1Cl)CCC2` [Compound 2-73]: the EC50 is less than 50 nM. Consider `CN(C(=O)CCC(=O)N1Cc2ccccc2C[C@H]1C(=O)N[C@@H](CCN)C(=O)Nc1ccc(Cl)c(Cl)c1F)C(C)(C)C` [Compound 15-53], for which the EC50 is 50 to 250 nM. To `Cc1cc(NC(=O)C(Cc2cccnc2)NC(=O)[C@@H]2Cc3ccccc3CN2C(=O)CCC(=O)c2ccccc2)ccc1Cl` (mixture of isomers) [Compound 3-3] belongs 250 to 500 nM; to `NC(=O)NCCC[C@H](NC(=O)[C@@H]1Cc2ccccc2CN1C(=O)CCC(=O)c1ccccc1)C(=O)Nc1ccc(Cl)c(Cl)c1` [Compound 3-1, (S)—N—((S)-1-((3,4-dichlorophenyl)amino)-1-oxo-5-ureidopentan-2-yl)-2-(4-oxo-4-phenylbutanoyl)-1,2,3,4-tetrahydroisoquinoline-3-carboxamide], 50 to 250 nM.
